Columns and labels:
[1] = Pharmacokinetics in uninfected mice; assay type: in vivo, mouse
[2] = Pharmacokinetics in cynomolgus monkeys; assay type: in vivo, cynomolgus monkey
Experimental: The blood distribution, CNS disposition and pharmacokinetics of SCYX-7158 were evaluated in infected or non-infected rodents following intravenous or oral administration of compounds. Pharmacokinetics and bioavailability of SCYX-7158 were also evaluated in non-infected beagle dogs and cynomolgus monkeys. In-life phases of non-infected rodent studies were performed at Vivisource (Waltham, MA); studies in non-naïve cynomolgus monkeys were performed by SNBL USA (Everett, WA). Male CD-1 mice (∼25 g), male Sprague-Dawley rats (∼225 g), or male cynomolgus monkeys (∼3–5 kg) were administered test article by either bolus intravenous injection (IV) or oral gavage. Animals in the IV groups received a single 2 mg/kg IV dose. Animals received oral doses of test articles as either single or twice daily doses ranging from 8 mg/kg to 50 mg/kg. All doses were administered as clear colorless solutions in either 50% (v/v) PEG 400: 20% (v/v) ethanol: 30% (v/v) carboxymethylcellulose (0.5% w/v in sterile water for injection) or 2% (v/v) ethanol: 5% (w/v) dextrose in sterile water for injection. […] For pharmacokinetic analysis, blood samples were collected from mice via cardiac puncture under terminal anaesthesia. Serial blood samples were collected from rats via a vascular access port located in the lateral saphenous vein. Mice and rats were euthanized in a CO2 chamber before collection of terminal blood samples or brain tissue. Blood samples were collected into polypropylene tubes containing K2EDTA anticoagulant and stored on ice until centrifuged for the preparation of plasma. Plasma was stored at −70°C. Whole brains were collected following decapitation, blotted dry, placed into polypropylene containers and then immediately frozen at approximately −70°C. CSF was collected from rats via cisterna magna puncture, placed in sterile polypropylene tubes, and stored at approximately −70°C. […] Treated samples were gently mixed at room temperature for 10 min, and then centrifuged at approximately 3000×g for 15 min at 15°C. The supernatants were transferred to 96-well plates or HPLC vials for analysis by LC-MS/MS. Pharmacokinetic parameters were calculated from composite mean plasma or tissue data using non-compartmental (oral and intravenous routes) and bi-exponential (intravenous route) analyses in Microsoft Excel.

[3] = Steady-state pharmacokinetics in T. brucei-infected mice; assay type: in vivo, mouse; conditions: for AUC(0-inf) / Cmax: mouse; for AUC(0-inf): read-out: AUC0-inf in brain tissue
Experimental: (§1) The blood distribution, CNS disposition and pharmacokinetics of SCYX-7158 were evaluated in infected or non-infected rodents following intravenous or oral administration of compounds. Pharmacokinetics and bioavailability of SCYX-7158 were also evaluated in non-infected beagle dogs and cynomolgus monkeys. In-life phases of non-infected rodent studies were performed at Vivisource (Waltham, MA); studies in non-naïve cynomolgus monkeys were performed by SNBL USA (Everett, WA).
Samples of plasma (25 µL) and CSF (10 µL) were treated with 3 volumes of ice-cold methanol (containing 25 ng/mL of 2-chloro-4-fluoro-N-(1-hydroxy-1,3-dihyrobenzo[c][1], [2]oxaborol-6-yl)benzamide or 25 ng/mL d6-SCYX-7158 as an internal standard) to precipitate proteins. Treated samples were gently mixed at room temperature for 10 min, and then centrifuged at approximately 3000×g for 15 min at 15°C. The supernatants were transferred to 96-well plates or HPLC vials for analysis by LC-MS/MS.
Pharmacokinetic parameters were calculated from composite mean plasma or tissue data using non-compartmental (oral and intravenous routes) and bi-exponential (intravenous route) analyses in Microsoft Excel.

>100 biochemical targets = assay: Array of in vitro receptor binding and enzyme inhibition assays; conditions: test concentration 10 µM
hERG potassium channel = hERG potassium channel (Homo sapiens, UniProt Q12809); assay: hERG radioligand binding assay; conditions: at 10 µM
[4] = Metabolism in primary hepatocytes; assay type: in vitro ADME, rat or dog; conditions: over 12 h
[5] = Tolerability in mice during efficacy studies; assay type: in vivo; conditions: doses up to 100 mg/kg BID (200 mg/kg/day), highest dose administered
[6] = In vivo pharmacokinetic characterization (abstract summary); design: species or system rodents
Experimental: as §1
Male CD-1 mice (∼25 g), male Sprague-Dawley rats (∼225 g), or male cynomolgus monkeys (∼3–5 kg) were administered test article by either bolus intravenous injection (IV) or oral gavage. Animals in the IV groups received a single 2 mg/kg IV dose. Animals received oral doses of test articles as either single or twice daily doses ranging from 8 mg/kg to 50 mg/kg. All doses were administered as clear colorless solutions in either 50% (v/v) PEG 400: 20% (v/v) ethanol: 30% (v/v) carboxymethylcellulose (0.5% w/v in sterile water for injection) or 2% (v/v) ethanol: 5% (w/v) dextrose in sterile water for injection. Doses were administered in a volume of 4 mL/kg, 2 mL/kg or 1 mL/kg for mice, rats and cynomolgus monkeys, respectively. For pharmacokinetic analysis, blood samples were collected from mice via cardiac puncture under terminal anaesthesia. Serial blood samples were collected from rats via a vascular access port located in the lateral saphenous vein. Mice and rats were euthanized in a CO2 chamber before collection of terminal blood samples or brain tissue. Blood samples were collected into polypropylene tubes containing K2EDTA anticoagulant and stored on ice until centrifuged for the preparation of plasma. Plasma was stored at −70°C. Whole brains were collected following decapitation, blotted dry, placed into polypropylene containers and then immediately frozen at approximately −70°C. CSF was collected from rats via cisterna magna puncture, placed in sterile polypropylene tubes, and stored at approximately −70°C.

Sequence of hERG potassium channel (Q12809 whole entry): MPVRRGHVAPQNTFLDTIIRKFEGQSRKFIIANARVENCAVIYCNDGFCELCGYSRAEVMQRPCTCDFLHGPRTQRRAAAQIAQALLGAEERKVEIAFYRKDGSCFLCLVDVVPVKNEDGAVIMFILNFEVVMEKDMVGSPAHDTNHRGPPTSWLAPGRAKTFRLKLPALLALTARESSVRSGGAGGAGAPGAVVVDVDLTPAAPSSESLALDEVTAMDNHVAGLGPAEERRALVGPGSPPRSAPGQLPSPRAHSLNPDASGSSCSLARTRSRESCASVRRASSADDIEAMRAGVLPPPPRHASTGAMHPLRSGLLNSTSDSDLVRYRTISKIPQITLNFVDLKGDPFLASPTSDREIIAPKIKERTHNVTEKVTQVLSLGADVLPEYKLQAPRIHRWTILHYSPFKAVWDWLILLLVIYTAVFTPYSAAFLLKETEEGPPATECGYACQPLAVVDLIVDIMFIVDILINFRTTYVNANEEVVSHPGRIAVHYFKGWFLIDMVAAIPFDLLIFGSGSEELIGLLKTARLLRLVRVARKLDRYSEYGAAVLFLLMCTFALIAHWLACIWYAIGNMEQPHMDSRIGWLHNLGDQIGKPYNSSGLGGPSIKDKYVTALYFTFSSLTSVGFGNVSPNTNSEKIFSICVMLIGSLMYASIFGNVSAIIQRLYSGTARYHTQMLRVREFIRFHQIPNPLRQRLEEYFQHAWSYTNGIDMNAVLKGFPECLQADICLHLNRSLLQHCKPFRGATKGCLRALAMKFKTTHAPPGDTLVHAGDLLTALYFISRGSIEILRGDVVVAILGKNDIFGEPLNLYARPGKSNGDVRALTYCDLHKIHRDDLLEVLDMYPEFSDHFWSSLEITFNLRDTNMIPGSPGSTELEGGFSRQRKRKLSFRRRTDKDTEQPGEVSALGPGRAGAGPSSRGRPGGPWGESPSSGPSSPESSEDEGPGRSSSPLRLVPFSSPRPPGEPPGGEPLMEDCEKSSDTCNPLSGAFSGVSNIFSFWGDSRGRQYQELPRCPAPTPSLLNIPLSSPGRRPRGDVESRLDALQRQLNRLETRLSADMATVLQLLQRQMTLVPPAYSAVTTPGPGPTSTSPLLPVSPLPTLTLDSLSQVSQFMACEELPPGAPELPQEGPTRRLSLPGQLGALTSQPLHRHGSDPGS

CC1(C)OB(O)c2cc(NC(=O)c3ccc(F)cc3C(F)(F)F)ccc21 [SCYX-7158]
brain AUC0–24 h ([1]; 4.3 mg/kg intravenous, brain): 5570 ng·h/mL
clearance ([1]; male, CD-1, mouse, plasma, 4.3 mg/kg intravenous, read-out: systemic clearance (CL) (converted)): 1.48 mL/min/kg
Vd ([1]; male, CD-1, mouse, plasma, 4.3 mg/kg intravenous, read-out: volume of distribution (Vdss)): 1.69 L/kg
Cmax ([1]; male, CD-1, mouse, oral dose of 56 mg/kg SCYX-7158, plasma): 18000 ng/mL
time of Cmax ([2]; 10 mg/kg NG, plasma): 9.5 h
Kp ([2]; male, cynomolgus monkey, CSF/plasma, at each time point, read-out: CSF concentration as % of the plasma concentration): ~0.05
AUC(0-inf) ([2]; male, cynomolgus monkey, oral, 10 mg/kg SCYX-7158 NG, plasma): 460000 ng·h/mL
Cmax ([2]; male, cynomolgus monkey, oral, 10 mg/kg SCYX-7158 nasogastric (NG), plasma): 11000 ng/mL
bioavailability ([2]; male, cynomolgus monkey, plasma, po, 10 mg/kg NG, read-out: absolute oral bioavailability): 89%
CL/F ([2]; male, cynomolgus monkey, plasma, po, 10 mg/kg NG, read-out: oral clearance (Cl/F) (converted)): 0.417 mL/min/kg
clearance ([2]; male, cynomolgus monkey, plasma, 2 mg/kg IV): 0.367 mL/min/kg
Vd ([2]; male, cynomolgus monkey, plasma, 2 mg/kg IV, read-out: Vdss): 0.656 L/kg
AUC(0-inf) ([2]; male, cynomolgus monkey, 2 mg/kg IV, plasma): 94400 ng·h/mL
AUC(0-t) ([2]; male, cynomolgus monkey, 2 mg/kg IV, plasma, read-out: AUC0–24 h): 78800 ng·h/mL
time brain concentrations maintained at or above the MIC (0.6 µg/mL) ([3]; 25 mg/kg dose): ~24 h
AUC(0-inf) ([3]; Swiss Webster, brain, 12.5 mg/kg oral, 7 daily doses, infected mice): 34200 ng·h/mL
Cmax ([3]; Swiss Webster, brain, 12.5 mg/kg oral, 7 daily doses, infected mice, read-out: Cmax in brain tissue): 6540 ng/mL
AUC(0-inf) ([3]; Swiss Webster, brain, 25 mg/kg oral, 7 daily doses, infected mice): 81500 ng·h/mL
Cmax ([3]; Swiss Webster, brain, 25 mg/kg oral, 7 daily doses, infected mice, read-out: Cmax in brain tissue): 12000 ng/mL
Cmax ([3]; plasma, 25 mg/kg doses, read-out: plasma Cmax at steady-state): ~15000 ng/mL
binding to or inhibition of off-target panel (>100 biochemical targets): did not exhibit any significant binding to, or inhibition of
binding to hERG channel (hERG potassium channel): −6%
fraction of SCYX-7158 metabolized [4]: less than 5%
tolerability [5]: well tolerated
half-life ([6]; male, rodents and non-human primates, plasma, read-out: elimination half-life (converted)): 24 h
brain AUC0–24 hr ([6]; rodents, 25 mg/kg oral dose): > 100000 ng·h/mL
brain Cmax ([6]; rodents, 25 mg/kg oral dose): > 10000 ng/mL

Source: publication PMC3125149, “SCYX-7158, an Orally-Active Benzoxaborole for the Treatment of Stage 2 Human African Trypanosomiasis” (PLoS Neglected Tropical Diseases, 2011)
